US20160102363A1, “METHODS AND COMPOSITIONS FOR PREDICTING THERAPEUTIC EFFICACY OF KINASE INHIBITORS IN PATIENTS WITH MYELODYSPLASTIC SYNDROME OR RELATED DISORDERS” (ONCONOVA THERAPEUTICS, INC., priority 2013, published 2016)

Test system: MDS patients
Test: Clinical hematological response of MDS patients treated with Rigosertib
Format: in vivo, human
Conditions: number of patients of 32 MDS patients
Source text: As used herein, “response” is defined by standard clinical criteria, importantly including amelioration of transfusion-dependent anemia, which is a major hallmark of myelodysplastic syndromes (MDS).
This study sought to identify DNA methylation markers that can predict the therapeutic response to a different, and an even more widely pertinent, class of anti-cancer drugs, namely broad-specificity tyrosine kinase inhibitors (TKI's) or a broad specificity kinase inhibitors. As used herein, “response” is defined by standard clinical criteria, importantly including amelioration of transfusion-dependent anemia, which is a major hallmark of myelodysplastic syndromes (MDS).
Pre-therapy bone marrow mononuclear cells from 32 patients were analyzed using the Illumina 450K methylation array platform.
In summary, seven (7) of 32 MDS patients had complete response or CR (Transfusion independence (TI)+increase in hemoglobin (Hb)>2 g/dL), ten (10) had partial response or PR (TI without Hb increase) and fifteen (15) had no response or NR. […] Bisulfite sequencing (which allows quantification of multiple consecutive CpGs in an amplicon) of several differentially methylated loci confirmed the Illumina 450K data.

COc1cc(OC)c(/C=C/S(=O)(=O)Cc2ccc(OC)c(NCC(=O)[O-])c2)c(OC)c1.[Na+] [Rigosertib]
complete response or CR (Transfusion independence (TI)+increase in hemoglobin (Hb)>2 g/dL): 7 | no response or NR: 15 | partial response or PR (TI without Hb increase): 10
